Measured values as given in the supplement of paper PMC6045584.
± gives the standard deviation of the averaged measurements.

Legend:
[1] = compound: NS(=O)(=O)OC[C@@H]1C[C@@H](n2ccc3c(N[C@H]4CCc5ccccc54)ncnc32)C[C@@H]1O [MLN-4924]; assay: surviving fraction relative to DMSO-only wells; higher = less growth inhibition; conditions: exposure time: 5 days
Method in brief: (§1)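 Surviving fraction is CellTiter-Glo luminescence divided by the median of wells given DMSO only. For this, log-phase tumour cell lines went into 384-well plates at 250–500 cells per well and, 24 hours later, into five days of continuous inhibitor exposure at 0.5, 1, 5, 10, 50, 100, 500 and 1000 nM. Lines were screened three times and retained only if replicate Pearson r >0.7 and median Z' >0.3.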

[2] = compound: C[C@]12CC[C@H](O)CC1=CC[C@@H]1[C@@H]2CC[C@]2(C)C(c3cccnc3)=CC[C@@H]12 [ABIRATERONE]; assay: as above; conditions: exposure time: 5 days
Method in brief: as §1

Test System | surviving fraction ([1]; 0.5 nM) | surviving fraction ([1]; 1 nM) | surviving fraction ([1]; 5 nM) | surviving fraction ([1]; 10 nM) | surviving fraction ([1]; 50 nM) | surviving fraction ([1]; 100 nM) | surviving fraction ([1]; 500 nM) | surviving fraction ([1]; 1000 nM) | surviving fraction ([2]; 0.5 nM) | surviving fraction ([2]; 1 nM) | surviving fraction ([2]; 5 nM) | surviving fraction ([2]; 10 nM) | surviving fraction ([2]; 50 nM) | surviving fraction ([2]; 100 nM) | surviving fraction ([2]; 500 nM) | surviving fraction ([2]; 1000 nM)
PCI30 HEADNECK | 1.01 ± 0.028 | 1.01 ± 0.072 | 1.04 ± 0.023 | 0.939 ± 0.027 | 0.724 ± 0.028 | 0.701 ± 0.056 | 0.414 ± 0.015 | 0.377 ± 0.019 | 1.12 ± 0.065 | 1.03 ± 0.091 | 1.11 ± 0.018 | 1.12 ± 0.068 | 1.18 ± 0.071 | 1.04 ± 0.013 | 1.04 ± 0.11 | 1.03 ± 0.065
RDES SOFT TISSUE | 1.24 ± 0.12 | 1.11 ± 0.22 | 1.29 ± 0.17 | 1.26 ± 0.081 | 0.952 ± 0.018 | 0.687 ± 0.067 | 0.0467 ± 0.0025 | 0.0413 ± 0.0021 | 1.19 ± 0.14 | 1.18 ± 0.12 | 1.21 ± 0.15 | 1.13 ± 0.11 | 1.2 ± 0.25 | 1.22 ± 0.25 | 1.28 ± 0.23 | 1.36 ± 0.27
S68 BREAST | 0.837 ± 0.21 | 0.964 ± 0.11 | 0.764 ± 0.18 | 1.07 ± 0.19 | 0.6 ± 0.074 | 0.326 ± 0.05 | 0.172 ± 0.024 | 0.105 ± 0.007 | 0.939 ± 0.22 | 0.785 ± 0.063 | 1.21 ± 0.21 | 0.925 ± 0.098 | 1.17 ± 0.021 | 1.17 ± 0.092 | 0.942 ± 0.15 | 0.878 ± 0.17
SAOS2 BONE | 1.14 ± 0.096 | 1.1 ± 0.082 | 1.13 ± 0.057 | 1.1 ± 0.069 | 0.313 ± 0.03 | 0.095 ± 0.0095 | 0.038 ± 0.0017 | 0.0377 ± 0.0015 | 1.1 ± 0.015 | 1.16 ± 0.11 | 1.23 ± 0.041 | 1.16 ± 0.018 | 1.183 ± 0.0029 | 1.24 ± 0.04 | 1.204 ± 0.012 | 1.1 ± 0.017
SCC003 HEADNECK | 1.14 ± 0.039 | 1.1 ± 0.016 | 1.11 ± 0.028 | 1.11 ± 0.048 | 1.11 ± 0.14 | 0.988 ± 0.041 | 0.526 ± 0.037 | 0.375 ± 0.037 | 1.15 ± 0.044 | 1.11 ± 0.14 | 1.09 ± 0.08 | 1.14 ± 0.065 | 1.27 ± 0.084 | 1.13 ± 0.088 | 1.19 ± 0.042 | 1.1 ± 0.034
SCC36 HEADNECK | 1.06 ± 0.18 | 0.955 ± 0.11 | 1.13 ± 0.061 | 1.14 ± 0.09 | 0.544 ± 0.12 | 0.259 ± 0.029 | 0.0483 ± 0.0085 | 0.047 ± 0.002 | 1.04 ± 0.094 | 1.09 ± 0.022 | 1.24 ± 0.08 | 1.14 ± 0.072 | 1.15 ± 0.046 | 1.1 ± 0.15 | 1.02 ± 0.061 | 1.02 ± 0.034
SCC47 HEADNECK | 1.12 ± 0.028 | 1.1 ± 0.11 | 1.06 ± 0.016 | 1.07 ± 0.022 | 0.717 ± 0.053 | 0.51 ± 0.05 | 0.307 ± 0.025 | 0.263 ± 0.024 | 1.18 ± 0.061 | 1.11 ± 0.027 | 1.17 ± 0.061 | 1.19 ± 0.1 | 1.22 ± 0.13 | 1.36 ± 0.098 | 1.25 ± 0.093 | 1.17 ± 0.077
SCC90 HEADNECK | 1.09 ± 0.27 | 1.04 ± 0.042 | 1.04 ± 0.099 | 0.541 ± 0.0053 | 0.212 ± 0.033 | 0.167 ± 0.01 | 0.144 ± 0.018 | 0.16 ± 0.032 | 1.26 ± 0.13 | 1.09 ± 0.15 | 1.25 ± 0.14 | 1.23 ± 0.18 | 1.21 ± 0.04 | 1.28 ± 0.1 | 1.23 ± 0.11 | 1.17 ± 0.062
SG27 HEADNECK | 1.07 ± 0.041 | 1.1 ± 0.12 | 1.11 ± 0.055 | 1.16 ± 0.13 | 0.991 ± 0.17 | 0.823 ± 0.076 | 0.618 ± 0.098 | 0.322 ± 0.055 | 1.09 ± 0.064 | 0.971 ± 0.11 | 1.05 ± 0.067 | 0.927 ± 0.039 | 0.867 ± 0.066 | 0.997 ± 0.08 | 0.957 ± 0.14 | 0.985 ± 0.07
SG28 HEADNECK | 1.16 ± 0.16 | 1.16 ± 0.03 | 1.153 ± 0.0099 | 1.1 ± 0.032 | 0.726 ± 0.076 | 0.614 ± 0.1 | 0.296 ± 0.024 | 0.24 ± 0.0099 | 1.11 ± 0.046 | 1.08 ± 0.11 | 1.02 ± 0.048 | 1.04 ± 0.12 | 1.02 ± 0.18 | 1.07 ± 0.043 | 1.01 ± 0.066 | 1.04 ± 0.13
SG31 HEADNECK | 1.21 ± 0.15 | 1.37 ± 0.22 | 1.06 ± 0.24 | 1.12 ± 0.14 | 0.671 ± 0.12 | 0.553 ± 0.062 | 0.247 ± 0.0062 | 0.198 ± 0.034 | 1.21 ± 0.14 | 1.11 ± 0.19 | 1.09 ± 0.12 | 0.866 ± 0.035 | 1.06 ± 0.13 | 0.997 ± 0.03 | 1.13 ± 0.23 | 0.981 ± 0.065
SG32 HEADNECK | 1.17 ± 0.11 | 1.05 ± 0.14 | 1.36 ± 0.08 | 1.28 ± 0.16 | 1.04 ± 0.044 | 0.797 ± 0.051 | 0.277 ± 0.023 | 0.186 ± 0.018 | 1.18 ± 0.12 | 1.29 ± 0.2 | 1.13 ± 0.2 | 1.22 ± 0.11 | 1.15 ± 0.05 | 1.17 ± 0.12 | 1.13 ± 0.16 | 1.21 ± 0.19
SG43 HEADNECK | 1.15 ± 0.29 | 1 ± 0.32 | 1.02 ± 0.26 | 1.15 ± 0.18 | 0.885 ± 0.19 | 1.11 ± 0.15 | 0.463 ± 0.094 | 0.223 ± 0.087 | 1.23 ± 0.2 | 1.1 ± 0.39 | 0.922 ± 0.036 | 0.934 ± 0.21 | 1.02 ± 0.51 | 0.995 ± 0.12 | 0.967 ± 0.13 | 0.987 ± 0.2
SIHA CERVIX | 1.04 ± 0.11 | 1.07 ± 0.057 | 1.16 ± 0.099 | 1.22 ± 0.092 | 0.81 ± 0.086 | 0.611 ± 0.077 | 0.377 ± 0.021 | 0.312 ± 0.026 | 1.16 ± 0.013 | 1.15 ± 0.016 | 1.18 ± 0.11 | 1.12 ± 0.086 | 1.18 ± 0.064 | 1.22 ± 0.046 | 1.27 ± 0.06 | 1.16 ± 0.056
SJSA1 BONE | 0.247 ± 0.017 | 1.7 ± 0.13 | 1.68 ± 0.098 | 1.57 ± 0.046 | 1.64 ± 0.17 | 1.8 ± 0.063 | 1.62 ± 0.033 | 1.73 ± 0.071 | 1.04 ± 0.051 | 1.09 ± 0.086 | 1.13 ± 0.032 | 1.1 ± 0.026 | 1.11 ± 0.037 | 1.15 ± 0.031 | 1.1 ± 0.015 | 1.04 ± 0.073
SKBR3 BREAST | 1.01 ± 0.067 | 1.06 ± 0.12 | 1.11 ± 0.083 | 1.01 ± 0.062 | 0.187 ± 0.015 | 0.14 ± 0.01 | 0.159 ± 0.017 | 0.175 ± 0.011 | 0.995 ± 0.11 | 1.07 ± 0.073 | 1.2 ± 0.17 | 0.924 ± 0.1 | 1.11 ± 0.18 | 1.14 ± 0.068 | 1.08 ± 0.1 | 0.918 ± 0.18
SNU475 LIVER | 0.976 ± 0.031 | 1.04 ± 0.031 | 1.04 ± 0.023 | 1.04 ± 0.062 | 1.12 ± 0.059 | 1.08 ± 0.046 | 0.663 ± 0.036 | 0.53 ± 0.012 | 1.03 ± 0.024 | 1.07 ± 0.035 | 1.05 ± 0.035 | 1.06 ± 0.045 | 1.02 ± 0.03 | 1.02 ± 0.071 | 1 ± 0.085 | 1.04 ± 0.016
SUM44 BREAST | 1.22 ± 0.37 | 1.27 ± 0.4 | 1.27 ± 0.33 | 1.23 ± 0.36 | 0.785 ± 0.24 | 0.63 ± 0.22 | 0.486 ± 0.13 | 0.495 ± 0.17 | 0.949 ± 0.017 | 0.962 ± 0.057 | 1.02 ± 0.037 | 0.991 ± 0.045 | 1.06 ± 0.034 | 1.12 ± 0.07 | 1.1 ± 0.047 | 1.03 ± 0.031
SUM149 BREAST | 1.08 ± 0.13 | 1.01 ± 0.16 | 1.09 ± 0.13 | 1.056 ± 0.0092 | 0.86 ± 0.073 | 0.555 ± 0.046 | 0.0803 ± 0.017 | 0.066 ± 0.003 | 1.05 ± 0.046 | 1.006 ± 0.01 | 1.07 ± 0.014 | 1.04 ± 0.038 | 0.947 ± 0.085 | 0.872 ± 0.1 | 0.902 ± 0.069 | 0.892 ± 0.071
SUM149.B1*.S BREAST | 1.13 ± 0.076 | 1.09 ± 0.063 | 1.09 ± 0.021 | 1.08 ± 0.031 | 1.002 ± 0.0051 | 0.675 ± 0.057 | 0.107 ± 0.0071 | 0.0892 ± 0.0075 | 1.11 ± 0.055 | 1.11 ± 0.047 | 1.2 ± 0.05 | 1.12 ± 0.071 | 1.21 ± 0.062 | 1.21 ± 0.074 | 1.19 ± 0.028 | 1.2 ± 0.078
SUM159 BREAST | 1.11 ± 0.039 | 1.07 ± 0.043 | 1.08 ± 0.023 | 1.07 ± 0.017 | 1.05 ± 0.018 | 1.01 ± 0.012 | 0.75 ± 0.022 | 0.433 ± 0.02 | 1.11 ± 0.053 | 0.994 ± 0.16 | 0.99 ± 0.17 | 0.952 ± 0.21 | 1.11 ± 0.05 | 0.963 ± 0.24 | 1.03 ± 0.15 | 0.961 ± 0.2
